Laboratory results taken from patent publication US20250064763A1, “METHODS OF TREATMENT OF PRIMARY BILIARY CHOLANGITIS” (Ipsen Pharma, priority 2023, published 2025).

Assays:
[1] = test system: patients with PBC; settings: cited from earlier work
[2] = test system: subjects with PBC; experiment: Clinical study of elafibranor, biochemical markers in plasma; settings: human, in vivo

SMILES	effect on pruritus ([1]; phase III study, OCA groups compared to placebo)	liver injury ([1]; post marketing reports, PBC patients with compensated or decompensated cirrhosis)	biochemical markers in the plasma [2]
CC[C@H]1[C@@H](O)[C@@H]2[C@H](CC[C@]3(C)[C@@H]([C@H](C)CCC(=O)O)CC[C@@H]23)[C@@]2(C)CC[C@@H](O)C[C@@H]12 [OCA, obeticholic acid]	exacerbate pruritus	led to hepatic decompensation and liver failure	
CSc1ccc(C(=O)/C=C/c2cc(C)c(OC(C)(C)C(=O)O)c(C)c2)cc1 [elafibranor]			relevant reduction
